Experiment [1] has as its target T1, Replicative DNA helicase DnaB (Mycobacterium tuberculosis, UniProt P9WMR3).
T1 sequence (P9WMR3 whole entry): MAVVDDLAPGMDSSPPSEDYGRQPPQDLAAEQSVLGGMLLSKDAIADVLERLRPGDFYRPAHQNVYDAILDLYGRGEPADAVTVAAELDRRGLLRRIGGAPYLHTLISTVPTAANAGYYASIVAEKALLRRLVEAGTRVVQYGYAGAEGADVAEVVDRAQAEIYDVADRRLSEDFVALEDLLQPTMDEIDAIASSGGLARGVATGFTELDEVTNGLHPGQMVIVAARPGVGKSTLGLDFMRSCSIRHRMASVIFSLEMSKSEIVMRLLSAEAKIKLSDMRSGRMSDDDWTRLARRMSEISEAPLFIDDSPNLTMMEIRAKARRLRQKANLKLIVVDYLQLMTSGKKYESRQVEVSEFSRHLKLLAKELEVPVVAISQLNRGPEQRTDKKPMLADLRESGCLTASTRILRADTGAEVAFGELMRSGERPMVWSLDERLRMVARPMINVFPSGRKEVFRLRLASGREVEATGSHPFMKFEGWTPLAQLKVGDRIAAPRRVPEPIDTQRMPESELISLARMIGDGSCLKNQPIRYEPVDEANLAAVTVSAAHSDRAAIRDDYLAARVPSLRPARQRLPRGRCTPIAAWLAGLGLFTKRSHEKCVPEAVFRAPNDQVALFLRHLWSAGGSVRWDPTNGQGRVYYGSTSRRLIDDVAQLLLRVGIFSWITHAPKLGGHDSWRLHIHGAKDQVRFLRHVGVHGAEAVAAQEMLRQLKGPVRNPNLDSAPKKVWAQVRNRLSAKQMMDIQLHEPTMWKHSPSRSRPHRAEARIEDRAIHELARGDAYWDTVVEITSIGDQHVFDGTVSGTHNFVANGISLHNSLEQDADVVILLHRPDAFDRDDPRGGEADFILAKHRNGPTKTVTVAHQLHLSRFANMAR
The experiment is described as follows: DnaB intein splicing inhibitors, dose response, biochemical, cell-free fluorescence (AID 449749). Format: functional.

For experiment [2], the target named is T2, Protein RecA (Mycobacterium tuberculosis, UniProt P9WHJ3).
T2 sequence (P9WHJ3 whole entry): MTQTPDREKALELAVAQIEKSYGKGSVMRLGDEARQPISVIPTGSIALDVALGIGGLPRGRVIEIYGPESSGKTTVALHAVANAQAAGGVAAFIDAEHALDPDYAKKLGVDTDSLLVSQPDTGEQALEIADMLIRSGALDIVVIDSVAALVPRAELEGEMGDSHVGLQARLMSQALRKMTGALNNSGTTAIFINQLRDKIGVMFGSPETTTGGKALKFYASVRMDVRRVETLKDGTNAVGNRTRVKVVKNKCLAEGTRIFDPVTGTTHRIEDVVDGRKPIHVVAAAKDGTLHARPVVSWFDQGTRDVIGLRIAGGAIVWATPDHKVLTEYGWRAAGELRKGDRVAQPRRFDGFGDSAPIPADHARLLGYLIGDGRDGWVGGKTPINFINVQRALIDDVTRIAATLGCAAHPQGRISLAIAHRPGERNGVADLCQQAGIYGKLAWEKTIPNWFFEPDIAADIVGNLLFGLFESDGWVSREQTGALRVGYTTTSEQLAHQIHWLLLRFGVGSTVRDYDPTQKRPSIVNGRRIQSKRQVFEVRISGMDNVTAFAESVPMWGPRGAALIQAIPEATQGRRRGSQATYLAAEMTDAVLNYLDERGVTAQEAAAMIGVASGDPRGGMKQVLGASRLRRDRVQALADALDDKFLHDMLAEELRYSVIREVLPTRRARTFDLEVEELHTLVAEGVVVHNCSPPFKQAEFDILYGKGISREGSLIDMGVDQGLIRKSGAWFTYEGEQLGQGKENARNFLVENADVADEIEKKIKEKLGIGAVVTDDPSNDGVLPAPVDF
The experiment is described as follows: Fluorescence Cell-Free Homogeneous Dose Retest to Identify Inhibitors of RecA-Intein Splicing Activity. [Related pubchem assays (depositor defined):AID2097, AID2223, AID489010, AID492950]. Format: functional.

The subject of experiment [3] is Streptococcus sp. 'group A'. The experiment is described as follows: Streptococcus pyogenes SK(-)GAS viability under kanamycin – luminescence, BacTiterGlo, confirmation, counter-screen for streptokinase expression inhibitor project, dose response (AID 1900). The format is functional, organism-based. Background: The purpose of a counterscreen is to sort out artefacts and off-target activity.

Experiment [4] addresses T3, Streptokinase A (Streptococcus pyogenes serotype M1, UniProt P10520).
T3 sequence (P10520 whole entry): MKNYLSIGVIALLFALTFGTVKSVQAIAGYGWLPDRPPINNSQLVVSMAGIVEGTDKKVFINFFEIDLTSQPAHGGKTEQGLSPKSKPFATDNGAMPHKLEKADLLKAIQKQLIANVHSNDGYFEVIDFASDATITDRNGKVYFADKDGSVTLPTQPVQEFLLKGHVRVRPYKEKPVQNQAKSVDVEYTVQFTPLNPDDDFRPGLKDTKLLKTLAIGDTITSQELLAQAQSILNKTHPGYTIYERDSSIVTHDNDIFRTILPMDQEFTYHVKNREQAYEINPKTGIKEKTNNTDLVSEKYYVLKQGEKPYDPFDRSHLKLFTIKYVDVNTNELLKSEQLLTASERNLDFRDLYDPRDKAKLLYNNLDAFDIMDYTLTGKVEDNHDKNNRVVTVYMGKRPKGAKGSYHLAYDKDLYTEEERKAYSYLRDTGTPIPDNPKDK
In words: viability-normalized secreted streptokinase activity reduction – plasminogen activation absorbance, OD405, dose response (AID 1914).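 Also: secreted streptokinase activity via plasminogen activation per viability signal from cell pellet.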 Format: functional, Streptococcus pyogenes M1 GAS.

Experiment [5] relates to Streptococcus. The experiment is described as follows: GAS UMAA2166 growth inhibition – luminescence, BacTiterGlo, counter-screen for streptokinase expression inhibitor project, dose response (AID 1915).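 Also: potency for reduction of bacterial viability or growth.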 Format: functional, organism-based.
Experiment [6] addresses T4, Ubiquitin-conjugating enzyme E2 N (Homo sapiens, UniProt P61088).
T4 sequence (P61088 whole entry): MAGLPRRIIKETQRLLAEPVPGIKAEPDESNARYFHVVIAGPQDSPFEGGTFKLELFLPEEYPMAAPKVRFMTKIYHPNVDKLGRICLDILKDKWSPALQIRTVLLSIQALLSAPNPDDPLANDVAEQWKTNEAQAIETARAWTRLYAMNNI
Format: functional.

For experiment [7], the target named is T4, Ubiquitin-conjugating enzyme E2 N. Format: functional. This is another data set of the same source.

Active and inactive are the calls of the source. Rule as the data show it, for most assays here: actives have a measured EC50 and inactives only a lower limit.

As a reminder, the AC50 is the concentration giving half of the maximal activity seen. The term EC50 denotes the concentration that produces a half-maximal response. For `O=C(NCCc1ccccc1)C(c1cccs1)N(C(=O)CCl)c1ccc(Cl)cc1` (stereo unspecified), the AC50 in experiment [1] was 1.49 µM (active). For the same compound, the EC50 in experiment [2] was 0.233 µM (active).

Usually IC50 stands for the concentration that inhibits the measured activity by half. As to `CCCCCCCCCC[N+](C)(C)CC/C=C1/c2ccccc2Sc2ccc(Cl)cc21`, the EC50 in experiment [3] is 1.75 µM (active); in experiment [4], 6.63 µM (active); in experiment [5], 5.62 µM (active); in experiment [2] it was 5.8 µM (active). Further, the IC50 was 4.61 µM (active) in experiment [6] and 3.77 µM (active) in experiment [7]. For the same compound, the AC50 in experiment [1] was > 380 µM (inconclusive).

Consider `COc1cc(/C=C/c2cc[n+](C)cc2)ccc1OCC(=O)Nc1ccc(Cl)c(Cl)c1`, for which the EC50 is 12.7 µM (active) in experiment [3], > 150 µM (not active) in experiment [4], 12.9 µM (active) in experiment [5] and 17.2 µM (active) in experiment [2]. The IC50 was 7.13 µM (active) in experiment [6] and 7.74 µM (active) in experiment [7]. For the same compound, in experiment [1], the AC50 was > 380 µM (inactive).

The record behind these values is ChEMBL document CHEMBL1201862, “PubChem BioAssay data set” (2004).
